# Reference: ChEMBL document CHEMBL1201862, “PubChem BioAssay data set” (2004)
#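 Cultured in 96-well plates, cells were exposed to test compound for 48 hours across five concentrations. At the GI50, growth is halved.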 The source made the active and inactive calls. Cut-off read from the data, not from the text of the source: active = GI50 up to about 1.1 µM and inactive = higher.
# Assays:
# Assay in all cases: DTP human tumour cell line panel, 48 h
# [1] = test system: A498
# [2] = test system: A549
# [3] = test system: COLO 205
# [4] = test system: HCC 2998
# [5] = test system: HL-60
# [6] = test system: HOP-62
# [7] = test system: HOP-92
# [8] = test system: NCI-H226
# [9] = test system: NCI-H522
# [10] = test system: OVCAR-3
# [11] = test system: SK-OV-3
# [12] = test system: SN12C
# [13] = test system: UACC-62
# [14] = test system: XF498
# [15] = test system: RXF 393
SMILES,GI50 [1],GI50 [2],GI50 [3],GI50 [4],GI50 [5],GI50 [6],GI50 [7],GI50 [8],GI50 [9],GI50 [10],GI50 [11],GI50 [12],GI50 [13],GI50 [14],GI50 [15]
O=C1C=C[C@@]23CC1C(O)C[C@H]2C=Cc1ccccc13 (some centres undefined),> 100 µM (inactive),> 100 µM (inactive),> 100 µM (inactive),> 100 µM (inactive),> 100 µM (inactive),> 100 µM (inactive),> 100 µM (inactive),> 100 µM (inactive),> 100 µM (inactive),> 100 µM (inactive),> 100 µM (inactive),> 100 µM (inactive),34.8 µM (inactive),> 100 µM (inactive),–
CC1=CCC(O)C=CC(C)C(O)C(C)C=C(C)C(=O)c2c(O)c(C)cc3c2C(=O)C(N)=C(NC(=O)/C=C\C=C/C=CC(C)C(O)CC1=O)C3=O (centres undefined),> 100 µM (inactive),> 100 µM (inactive),37.1 µM (inactive),> 100 µM (inactive),0.292 µM (active),> 100 µM (inactive),> 100 µM (inactive),> 100 µM (inactive),19.5 µM (inactive),64.4 µM (inactive),> 100 µM (inactive),> 100 µM (inactive),> 100 µM (inactive),> 100 µM (inactive),–
COc1cc([C@H]2c3cc4c(cc3[C@H](NCc3ccc(F)cc3)C3COC(=O)[C@H]32)OCO4)cc(OC)c1O (some centres undefined),2.19 µM (inactive),–,13.6 µM (inactive),10.5 µM (inactive),0.815 µM (active),1.23 µM (inactive),2.57 µM (inactive),2.03 µM (inactive),2.43 µM (inactive),11.1 µM (inactive),2.87 µM (inactive),1.96 µM (inactive),1.56 µM (inactive),2.37 µM (inactive),8.04 µM (inactive)
CC(=O)c1ccc(NC(=O)C(=O)C(C(=O)c2ccc(Cl)c(Cl)c2)C2OC(=O)c3ccccc32)cc1 (centres undefined),16.6 µM (inactive),21.4 µM (inactive),15.1 µM (inactive),13.7 µM (inactive),28.1 µM (inactive),18.9 µM (inactive),24.5 µM (inactive),5.15 µM (inactive),9.38 µM (inactive),16.9 µM (inactive),59.8 µM (inactive),21.6 µM (inactive),19.4 µM (inactive),22.5 µM (inactive),4.54 µM (inactive)
COc1ccc(-c2cnoc2-c2ccc(OC)c(OC)c2)cc1OC,1.6 µM (inactive),3.02 µM (inactive),1.18 µM (inactive),1.05 µM (active),0.313 µM (active),1.1 µM (active),2.67 µM (inactive),1.71 µM (inactive),0.556 µM (active),1.31 µM (inactive),1.47 µM (inactive),3.04 µM (inactive),0.406 µM (active),1.75 µM (inactive),1.23 µM (inactive)
O=C(/C=C(\O)C(=O)O)/C=C(\O)c1ccc(Cl)cc1,> 100 µM (inactive),> 100 µM (inactive),> 100 µM (inactive),> 100 µM (inactive),> 100 µM (inactive),> 100 µM (inactive),> 100 µM (inactive),> 100 µM (inactive),> 100 µM (inactive),> 100 µM (inactive),> 100 µM (inactive),> 100 µM (inactive),> 100 µM (inactive),> 100 µM (inactive),> 100 µM (inactive)
CN(C)c1ccc(/C=C2\CCc3ccccc3C2=O)cc1Br,–,51.3 µM (inactive),68.9 µM (inactive),> 100 µM (inactive),21.2 µM (inactive),> 100 µM (inactive),62.7 µM (inactive),> 100 µM (inactive),23.2 µM (inactive),49 µM (inactive),> 100 µM (inactive),> 100 µM (inactive),40.2 µM (inactive),94.6 µM (inactive),75.5 µM (inactive)
COc1ccc(C(=O)O)c2c(=O)c3ccccc3[nH]c12,> 100 µM (inactive),> 100 µM (inactive),> 100 µM (inactive),> 100 µM (inactive),> 100 µM (inactive),> 31.6 µM (inactive),> 100 µM (inactive),> 100 µM (inactive),> 100 µM (inactive),> 10 µM (inactive),> 100 µM (inactive),> 100 µM (inactive),> 100 µM (inactive),> 100 µM (inactive),> 100 µM (inactive)
CC(=O)NC1=C(NCCN(C)C)C(=O)c2ccccc2C1=O,–,15 µM (inactive),9.95 µM (inactive),14.9 µM (inactive),9.79 µM (inactive),14.5 µM (inactive),–,> 50 µM (inactive),10.3 µM (inactive),14.7 µM (inactive),> 50 µM (inactive),10.4 µM (inactive),10.5 µM (inactive),13.7 µM (inactive),25.4 µM (inactive)
COC(=O)C(=O)C(C(=O)C=C(C)C)C(=O)C(=O)Nc1cc(C(F)(F)F)ccc1Cl (centres undefined),> 100 µM (inactive),> 100 µM (inactive),52.2 µM (inactive),> 100 µM (inactive),> 100 µM (inactive),> 100 µM (inactive),> 100 µM (inactive),> 100 µM (inactive),57.5 µM (inactive),> 100 µM (inactive),> 100 µM (inactive),> 100 µM (inactive),> 100 µM (inactive),> 100 µM (inactive),> 100 µM (inactive)
O=[N+]([O-])c1ccc(Sc2c3ccccc3nc3ccccc23)cc1,–,> 100 µM (inactive),> 100 µM (inactive),> 100 µM (inactive),46.5 µM (inactive),> 100 µM (inactive),–,> 100 µM (inactive),74.1 µM (inactive),> 100 µM (inactive),–,> 100 µM (inactive),> 100 µM (inactive),> 100 µM (inactive),> 100 µM (inactive)
CC(=O)c1cccc(NC(=O)C(=O)Nn2c(N)nnc2N)c1,> 100 µM (inactive),> 100 µM (inactive),> 100 µM (inactive),> 100 µM (inactive),> 100 µM (inactive),> 100 µM (inactive),> 100 µM (inactive),> 100 µM (inactive),> 100 µM (inactive),–,> 100 µM (inactive),> 100 µM (inactive),> 100 µM (inactive),> 100 µM (inactive),> 100 µM (inactive)
Cc1cc(N(CCC#N)CCC#N)ccc1/N=N/c1ccc(Br)cc1,13.7 µM (inactive),15.1 µM (inactive),> 100 µM (inactive),> 27 µM (inactive),> 100 µM (inactive),6.41 µM (inactive),–,25.1 µM (inactive),16.6 µM (inactive),> 44.2 µM (inactive),2.64 µM (inactive),> 36.8 µM (inactive),9.31 µM (inactive),2.22 µM (inactive),8.13 µM (inactive)
